Data: patent US5658880A, “Sialic acid/fucose based medicaments” (Glycomed Incorporated, priority 1994, dated 1997)
pIC50: −log10 of the molar value.

What was measured:
E-selectin = assay: ELISA: inhibition of E-selectin-IgG chimera binding to 2,3 sLe^x glycolipid; set-up: species or system human; details: for pIC50: inhibition of binding to 2,3 sLex glycolipid
Description: (§1) An ELISA assay is preferably used that employs recombinant fusion proteins composed of extracellular portions of the human selectins joined to human immunoglobulin heavy chain CH3, CH2, and hinge regions. See, for example, Walz et al., Science (1990) 250:1132; Aruffo et al., Cell (1991) 67:35; Aruffo et al., Proc. Natl. Acad. Sci. USA. (1992) 89:2292. The assay is well known in the art, and generally consists of the following three steps:
(§2) I. 2,3 sLe^x glycolipid (25 picomole/well) was transferred into microtiter wells as solutions and then evaporated off. Excess, which remained unattached, was washed off with water. The wells were then blocked with 5% BSA at room temperature for an hour and then washed with PBS containing 1 mM calcium.
(§3) II. Preparation of "multivalent" receptor of the Selectin-lgG chimera was carried out by combining the respective chimera (1 μg/mL) with biotin labelled goat F(ab')2 anti-human IgG (Fc specific) and streptavidin-alkaline phosphatase diluted 1:1000 in 1% BSA-PBS (1 mM calcium) and incubating at 37° C. for 15 min. This allowed the soluble multivalent receptor complex to form. III. Potential inhibitors such as the compounds of formula I or II were allowed to react with the soluble receptor at 37° C. for 45 min. This test assumes that optimal binding, between the soluble phase receptor complex and the inhibitor (non natural ligand), would have occurred within this time frame. This solution was then placed in the microtiter wells that were prepared in step I. The plate was incubated at 37° C. for 45 minutes to allow the soluble receptor to bind to its natural ligand. In the presence of a strong inhibitor only a few receptors should be free to bind to the microtiter plate coated with the natural ligand.
(§4) The positive control is the signal produced by the soluble receptor when it is allowed to react with 2,3 sLe^x glycolipid in the microtiter wells in the absence of any inhibitor. This positive control was considered 100% binding. The signal produced by the receptor that had been previously treated with an inhibitor (recorded as O.D.), was divided by the signal produced by the positive control and multiplied by 100 to calculate the % receptor bound to the well in the presence of the inhibitor. The reciprocal of this number is the % inhibition.
as §1, with “was employed” for “is preferably used”, “uses” for “employs”, “USA” for “USA.”
(§5) II. Preparation of "multivalent" receptor of the Selectin-IgG chimera was carried out by combining the respective chimera 1 μg/ml) with biotin labelled goat F(ab')2 anti-human IgG (Fc specific) and streptavidin-alkaline phosphatase diluted 1:1000 in 1% BSA-PBS (1 mM calcium) and incubating at 37° C. for 15 min. This allowed the soluble multivalent receptor complex to form.
(§6) III. Potential inhibitors such as compounds of formula I or II were allowed to react with the soluble receptor at 37° C. for 45 min. This test assumes that optimal binding, between the soluble phase receptor complex and the inhibitor (non natural ligand), would have occurred within this time frame. This solution was then placed in the microtiter wells that were prepared in step I. The plate was incubated at 37° C. for 45 minutes to allow the soluble receptor to bind to its natural ligand. In the presence of a strong inhibitor only a few receptors should be free to bind to the microtiter plate coated with the natural ligand.
(§7) The positive control is the signal produced by the soluble receptor when it is allowed to react with 2,3 sLe^x glycolipid in the microtiter wells in the absence of any inhibitor. This was considered 100% binding. […]

L-selectin = assay: ELISA: inhibition of L-selectin-IgG chimera binding to 2,3 sLe^x glycolipid; set-up: species or system human; details: for inhibition of L-selectin binding to 2,3 sLe^x glycolipid: FIG. 5 and FIG. 6, result in words; for pIC50: inhibition of binding to 2,3 sLex glycolipid
Description: as §1, §2, §3, §4
as §1, with “was employed” for “is preferably used”, “uses” for “employs”, “USA” for “USA.”
as §5, §6, §7

P-selectin [1] = assay: ELISA: inhibition of P-selectin-IgG chimera binding to 2,3 sLe^x glycolipid; set-up: species or system human; details: inhibition of binding to 2,3 sLex glycolipid
Description: as §1, §2, §3, §4
as §1, with “was employed” for “is preferably used”, “uses” for “employs”, “USA” for “USA.”
as §5, §6, §7

P-selectin [2] = assay: Flow cytometric assay: inhibition of P-selectin-IgG binding to HL-60 cells; assay type: cell-based, human; set-up: unit of the concentration uncertain
Protocol: The interaction of P-selectin and its cellular ligand was studied using a flow cytometric assay (Erbe, D. V. et al., J. Cell Biol. (1993) 120:1227). HL60 cells (maintained in high glucose DME plus 10% Hyclone FBS) were used in this assay. Before staining with P-selectin-IgG the cells were preincubated in Dulbecco's PBS/1% BSA/0.1% sodium azide/1% normal rabbit serum (staining medium) for 30-60 mins on ice. After this initial incubation, 1 μg of P-selectin-IgG was added to 100 μl aliquots of 10^6 cells and incubated for 30-60 mins on ice. The cells were when washed with staining medium and resuspended in 100 μl of staining medium to which was added 2 μl of a phycoerythrin-conjugated F(ab')^2 goat anti-human IgG (Fc specific). The cells were incubated for 15-30 mins on ice, washed twice with staining medium, and resuspended in 0.5 ml of staining medium before flow cytometric analysis on a FACScan (Becton Dickinson & Co., Mountain View, Calif.). To determine that the staining was an interaction of P-selectin with its ligand, the staining was also done in the presence of 10 mM EGTA. To determine the protease sensitivity and the requirement for sialic acid of this interaction, HL-60 cells in D-PBS and 1% BSA were incubated with either trypsin or Arthrobacter or Clostridium sialidases at 37° C. before resuspending in staining medium. To examine the ability of various carbohydrates to inhibit staining, 50 μg/ml fucoidin (Sigma Immunochemicals, St. Louis, Mo.), 50 μg/ml dextran sulfate (Pharmacia Fine Chemicals, Piscataway, N.J.), 10 mg/ml mannose-1-phosphate (Sigma Immunochemicals), or 10 mg/ml mannose-6-phosphate (Sigma Immunochemicals) was added to cells immediately before the addition of the P-selectin chimera. Each carbohydrate was then present until the cells were washed before the addition of the second stage antibody. A potential complication of this FACS assay arose from the use of selectin-IgG chimeras to stain cells which bear human IgG Fc receptors (FcγR; Fanger, M. W., et al., Immunol. Today (1989) 10:92). Adding rabbit IgG (in the form of normal rabbit serum) to the assay medium blocked this binding in most cases.

Row | pIC50 (E-selectin) | pIC50 (L-selectin) | pIC50 (P-selectin [1]) | SMILES | inhibition of E-selectin binding to 2,3 sLe^x glycolipid (E-selectin; FIG. 4, result in words) | inhibition of L-selectin binding to 2,3 sLe^x glycolipid (L-selectin) | Inhibition (%) of P-selectin-IgG binding to HL-60 cells (P-selectin [2]; 10 (unit uncertain)) [%] | Inhibition (%) of P-selectin-IgG binding to HL-60 cells (P-selectin [2]; 100 (unit uncertain)) [%] | Inhibition (%) of P-selectin-IgG binding to HL-60 cells (P-selectin [2]; 200 (unit uncertain)) [%]
1 | – | – | – | CC(=O)N[C@H]1[C@H]([C@H](O)[C@H](O)CO)OC(OCCCCCCOC2O[C@@H](C)[C@@H](O)[C@@H](O)[C@@H]2O)(C(=O)O)C[C@@H]1O (stereo partly drawn) [Compound 14, O-Hexamethylene linked α,β-NeuNAc and α,β-L-Fucopyranose] | inhibit E-selectin binding to 2,3 sLe^x glycolipid | inhibit L-selectin binding in a concentration dependent manner | – | – | –
2 | – | – | – | CC(=O)N[C@H]1[C@H]([C@H](O)[C@H](O)CO)OC(OCCCCCCOC2O[C@@H](C)[C@@H](O)[C@@H](O)[C@@H]2O)(C(=O)O)C[C@@H]1O (stereo partly drawn) [Compound 15, O-Hexamethylene linked α,β-NeuNAc and α,β-L-Fucopyranose] | – | blocks L-selectin binding at concentrations lower than 7 and 14 | – | – | –
3 | < 2.40 | – | – | CC(=O)NC1C(O)CC(OC2C(O)C(CO)OC(OCCOC3OC(C)C(O)C(O)C3O)C2O)(C(=O)O)OC1C(O)C(O)CO [Compound 28, [O-(α-L-fucopyranosyl)-ethyl]3-O-(α-Neu5Ac)-β-D-galactopyranoside] | – | – | – | – | –
4 | 2.70 | ≥ 2.40 | – | CCCOCC(CO[C@@H]1O[C@H](CO)[C@H](O)[C@H](OC(C)C(=O)O)[C@H]1O)O[C@@H]1O[C@@H](C)[C@@H](O)[C@@H](O)[C@@H]1O (stereo partly drawn) [Compound 32, 1-O-(3-O-α-carboxyethyl-β-D-galactopyranosyl)-2-O-(α-L-fucopyranosyl)-3-O-(n-propyl)-propane] | – | – | – | – | –
5 | > 3.30 | > 3.00 | > 3.30 | C[C@@H]1O[C@@H](CCOc2ccc3cc(C(=O)O)ccc3c2)[C@@H](O)[C@H](O)[C@@H]1O [Compound 51, 1-Deoxy-1-α-(2-Carboxy-Naphthyl-6-Oxyethyl)-L-Fucose] | – | – | – | – | –
6 | > 3.30 | < 2.40 | > 3.30 | COc1ccc(-c2c(C(=O)O)oc3cc(OCC[C@@H]4O[C@@H](C)[C@@H](O)[C@@H](O)[C@@H]4O)cc(O)c3c2=O)cc1 [Compound 54, 2-Carboxy-5-Hydroxy-7-(1-Deoxy-1-α-Fucosyl-Ethyleneoxy)-4-Methoxy Isoflavone] | – | – | – | – | –
7 | < 2.40 | ~2.70 | > 3.30 | C[C@@H]1O[C@@H](CCOc2ccc3cc(OCC[C@@H]4O[C@@H](C)[C@@H](O)[C@@H](O)[C@@H]4O)c(C(=O)O)cc3c2)[C@@H](O)[C@H](O)[C@@H]1O [Compound 57, 3,7-Di-(1-Deoxy-1-α-Fucosyl-Ethyleneoxy)-2-Naphthoic Acid] | – | – | – | – | –
8 | < 2.40 | ~2.40 | 2.70 | C[C@@H]1O[C@@H](CCOc2cc3c(OCC[C@@H]4O[C@@H](C)[C@@H](O)[C@@H](O)[C@@H]4O)cccc3cc2C(=O)O)[C@@H](O)[C@H](O)[C@@H]1O [Compound 58, 3,5-Di-(1-Deoxy-1-α-Fucosyl-Ethyleneoxy)-2-Naphthoic Acid] | – | – | – | – | –
9 | < 2.40 | 2.40 | < 2.70 | COC(=O)C(C)c1ccc2cc(OCC[C@@H]3O[C@@H](C)[C@@H](OC(C)=O)[C@@H](OC(C)=O)[C@@H]3OC(C)=O)ccc2c1 (stereo partly drawn) [Compound 60] | – | – | – | – | –
10 | < 2.40 | < 2.40 | < 2.40 | CC(C(=O)OCC1CO1)c1ccc2cc(OCC(O)CO)ccc2c1 (stereo not drawn) [Compound 64] | – | – | – | – | –
11 | > 3.30 | < 2.70 | > 3.30 | C[C@@H]1O[C@@H](CCOc2ccc(C(=O)O)cc2)[C@@H](O)[C@H](O)[C@@H]1O [Compound 67, 1-Deoxy-1-α-(p-Carboxy-Phenoxyethyl)-L-Fucose] | – | – | – | – | –
12 | ~2.40 | < 2.40 | > 3.30 | C[C@@H]1O[C@@H](CCOc2ccccc2C(=O)O)[C@@H](O)[C@H](O)[C@@H]1O [Compound 68, 1-Deoxy-1-α-(o-Carboxy-Phenoxyethyl)-L-Fucose] | – | – | – | – | –
13 | < 2.40 | < 2.40 | < 2.40 | C[C@@H]1O[C@@H](CCOc2cccc(C(=O)O)c2)[C@@H](O)[C@H](O)[C@@H]1O [Compound 69, 1-Deoxy-1-α-(m-Carboxy-Phenoxyethyl)-L-Fucose] | – | – | – | – | –
14 | < 2.40 | < 2.40 | < 2.40 | C[C@@H]1O[C@@H](CCc2cccc(C(=O)NC(Cc3ccccc3)C(=O)O)c2)[C@@H](O)[C@H](O)[C@@H]1O (stereo partly drawn) [Compound 74, 1-Deoxy-1-α-(m-Carboxy-Phenylethyl)-L-Fucose-Phenylalanine Amide] | – | – | – | – | –
15 | < 2.40 | < 2.40 | 2.40 | C[C@@H]1O[C@@H](CCc2ccc(C(=O)NC(Cc3ccccc3)C(=O)O)cc2)[C@@H](O)[C@H](O)[C@@H]1O (stereo partly drawn) [Compound 75, 1-Deoxy-1-α-(p-Carboxy-Phenylethyl)-L-Fucose-Phenylalanine Amide] | – | – | – | – | –
16 | < 2.40 | < 2.40 | < 2.40 | C[C@@H]1O[C@@H](CCc2ccccc2C(=O)NC(Cc2ccccc2)C(=O)O)[C@@H](O)[C@H](O)[C@@H]1O (stereo partly drawn) [Compound 76, 1-Deoxy-1-α-(o-Carboxy-Phenylethyl)-L-Fucose-Phenylalanine Amide] | – | – | – | – | –
17 | 2.52 to 2.70 | 2.52 to 2.70 | ~3.30 | C[C@@H]1O[C@@H](OCCCCCCOS(=O)(=O)O)[C@@H](O)[C@H](O)[C@@H]1O [Compound 77, 6-O-sulfo-hexanyl-α-L-fucopyranoside] | – | – | 50 | 50 | 60
